From US20230210853A1 (Halia Therapeutics, Inc., priority 2020, published 2023)
pIC50: −log10 of the molar value. Like-named read-outs stand apart in the source and are kept apart here.

Legend:
[1] = biological target: T1, full-length recombinant human NEK7 (Homo sapiens, UniProt Q8TDX7); test: NEK7 enzymatic assay ([33P]-ATP, casein substrate); format: biochemical
T1 construct: full-length recombinant human NEK7; GST (N); purchased SignalChem N09-10G; host or cells: Sf9 insect cells (baculovirus)
T1 sequence (Q8TDX7 whole entry): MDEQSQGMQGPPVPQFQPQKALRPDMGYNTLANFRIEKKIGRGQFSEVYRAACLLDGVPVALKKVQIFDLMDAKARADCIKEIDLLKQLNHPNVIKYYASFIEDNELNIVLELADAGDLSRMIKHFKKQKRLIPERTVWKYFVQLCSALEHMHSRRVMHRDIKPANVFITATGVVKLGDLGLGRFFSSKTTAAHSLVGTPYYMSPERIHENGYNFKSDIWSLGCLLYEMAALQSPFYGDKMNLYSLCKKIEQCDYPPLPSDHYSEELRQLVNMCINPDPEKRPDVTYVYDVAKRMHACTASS
How it was run: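 GST-tagged enzyme, baculovirus-expressed in Sf9 cells, was mixed with casein in 20 mM Hepes pH 7.5, 10 mM MgCl2, 1 mM EGTA, 0.02% Brij35, 2 mM DTT, 1% DMSO. Compounds (3-fold series, 10 μM–0.5 nM) were preincubated 20 min at RT, then [33P]-ATP was added for 2 h at RT. P81 filter-bound radioactivity was expressed as % of vehicle activity and fitted to IC50.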

IL-1β release = IL-1β release assay (PMA-differentiated THP-1 cells, LPS + nigericin, cleaved IL-1β by JESS); format: cell-based; conditions: Homo sapiens
Description: (§1) Approximately 1.5 million THP-1 cells were plated in each well of a 6-well TC plate and incubated with 40 nM PMA in RPMI (10% FBS, 1% Penstrep) for 24 hours. The media was then removed and cells were rested in RPMI (10% FBS, 1% Penstrep) for 24 hours after which time the media was removed and cells were pre-treated for 2 hours with various concentrations of compounds of interest (typically serial 3-fold dilution in RPMI +5% FBS, concentrations ranging from 1 μM to 0.5 nM) in RPMI (5% FBS). The media was again removed and cells were incubated with 250 ng/mL LPS and compounds of interest (concentrations as above) in RMPI (5% FBS) for 2 hours. The media was removed for a last time and cells were incubated with 20 μM nigericin and compounds of interest (concentrations as above) in Opti-MEM for 30 minutes. Cell media was then collected and the amount of cleaved IL-1β was determined using a JESS instrument (Protein Simple) and standard protocols. Cleaved 1-PD antibody was obtained from Cell Signaling (catalogue #83186S) and was used at 1:20 dilution in antibody diluent 2. Protein Simple 1× anti-Rabbit HRP secondary antibody was used along with Protein Simple luminol and peroxide for chemiluminescent detection. Primary antibody incubation time was increased from 30 minutes to 60 minutes.
as §1, with “RPMI+5%” for “RPMI +5%”, “Il-1β” for “1-PD”

[2] = Table 2a, recombinant human NEK7, casein substrate
[3] = Table 2a, THP-1 cells, LPS + nigericin, read-out: II-1β release IC50
[4] = Table 2b, recombinant human NEK7, casein substrate
[5] = Table 2b, THP-1 cells, LPS + nigericin, read-out: Il-1β release IC50
[6] = Table 2e, recombinant human NEK7, casein substrate
[7] = Table 2e, THP-1 cells, LPS + nigericin, read-out: IL-1β release IC50

Row | Structure (SMILES) | pIC50 [1, 2] | pIC50 (IL-1β release; [3]) | pIC50 [1, 4] | pIC50 (IL-1β release; [5]) | pIC50 [1, 6] | pIC50 (IL-1β release; [7]) | other results
1 | Cc1c[nH]c2nccc(Oc3ccc(NC(=O)Nc4cc(C(C)(C)C)nn4-c4ccccc4)c(F)c3)c12 [Ib-4, 1-(3-(tert-butyl)-1-phenyl-1H-pyrazol-5-yl)-3-(2-fluoro-4-((3-methyl-1H-pyrrolo[2,3-b]pyridin-4-yl)oxy)phenyl)urea] | – | – | 5.82 to 6.30 | > 6.82 | – | – | –
2 | CC(C)(C)c1cc(NC(=O)Nc2c(F)cc(Oc3ccnc4[nH]cc(Cl)c34)cc2F)n(-c2ccccc2)n1 [Ib-8] | – | – | < 5.82 | 6.30 to 6.52 | – | – | –
3 | Nc1ncnc2c1c(-c1ccc3c(c1F)CCN3C(=O)Cc1ccc(F)c(C(F)(F)F)c1)nn2C1CCOCC1 [II-14, 1-(5-(4-amino-1-(tetrahydro-2H-pyran-4-yl)-1H-pyrazolo[3,4-d]pyrimidin-3-yl)-4-fluoroindolin-1-yl)-2-(4-fluoro-3-(trifluromethyl)phenyl)ethan-1-one] | – | – | – | – | – | – | pIC50 ([1]; comparative compounds of Structure (II)): > 6.82; pIC50 (IL-1β release; THP-1, comparative compounds of Structure (II), read-out: IL-1β release IC50): < 6.00
4 | Cc1c[nH]c2nccc(Oc3ccc(NC(=O)Nc4ccc(CN5CCN(C)CC5)c(C(F)(F)F)c4)c(F)c3)c12 [Ie-28, 1-(2-fluoro-4-((3-methyl-1H-pyrrolo[2,3-b]pyridin-4-yl)oxy)phenyl)-3-(4-((4-methylpiperazin-1-yl)methyl)-3-(trifluoromethyl)phenyl)urea] | – | – | – | – | 6.52 to 6.82 | 6.52 to 6.82 | –
5 | Cc1cc2c(Oc3ccc(NC(=O)Nc4cc(C(C)(C)C)nn4-c4ccccc4)c(F)c3)ccnc2[nH]1 [Ib-5, 1-(3-(tert-butyl)-1-phenyl-1H-pyrazol-5-yl)-3-(2-fluoro-4-((2-methyl-1H-pyrrolo[2,3-b]pyridin-4-yl)oxy)phenyl)urea] | – | – | < 5.82 | 6.52 to 6.82 | – | – | –
6 | CN1CCC(=Cc2ccc(NC(=O)Nc3ccc(Oc4ccnc5[nH]cc(Cl)c45)cc3F)cc2C(F)(F)F)CC1 [Ie-20, 1-(4-((3-chloro-1-pyrrolo[2,3-b]pyridin-4-yl)oxy)-2-fluorophenyl)-3-(4-((1-methylpiperidin-4-ylidene)methyl)-3-(trifluoromethyl)phenyl)urea] | – | – | – | – | 6.30 to 6.52 | > 6.82 | –
7 | CN1CCN(Cc2ccc(NC(=O)Nc3ccc(Oc4ccnc5[nH]cc(Cl)c45)cc3F)cc2C(F)(F)F)CC1 [Ie-1, 1-(4-((3-chloro-1H-pyrrolo[2,3-b]pyridin-4-yl)oxy)-2-fluorophenyl)-3-(4-((4-methylpiperazin-1-yl)methyl)-3-(trifluoromethyl)phenyl)urea] | – | – | – | – | 6.52 to 6.82 | > 6.82 | –
8 | CN1CCC(Oc2ccc(NC(=O)Nc3ccc(Oc4ccnc5[nH]cc(Cl)c45)cc3F)cc2C(F)(F)F)CC1 [Ie-16, 1-(4-((3-chloro-1H-pyrrolo[2,3-b]pyridin-4-yl)oxy)-2-fluorophenyl)-3-(4-((1-methylpiperidin-4-yl)oxy)-3-(trifluoromethyl)phenyl)urea] | – | – | – | – | 6.52 to 6.82 | > 6.82 | –

Now from value to compound, other results behind:

Row | pIC50 [1, 2] | pIC50 (IL-1β release; [3]) | pIC50 [1, 4] | pIC50 (IL-1β release; [5]) | pIC50 [1, 6] | pIC50 (IL-1β release; [7]) | Structure (SMILES) | other results
9 | 6.52 to 6.82 | 6.52 to 6.82 | – | – | – | – | Nc1nccc2c1c(-c1ccc(NC(=O)Nc3cc(C4(C(F)(F)F)CC4)no3)c(F)c1)nn2C1CC1 [Ia-45, 1-(4-(4-amino-1-cyclopropyl-1H-pyrazolo[4,3-c]pyridin-3-yl)-2-fluorophenyl)-3-(3-(1-(trifluoromethyl)cyclopropyl)isoxazol-5-yl)urea] | –
10 | – | – | 5.82 to 6.30 | > 6.82 | – | – | CC(C)(C)c1cc(NC(=O)Nc2ccc(Oc3ccnc4[nH]cc(C5CC5)c34)cc2F)n(-c2ccccc2)n1 [Ib-18, 1-(3-(tert-butyl)-1-phenyl-1H-pyrazol-5-yl)-3-(4-((3-cyclopropyl-1H-pyrrolo[2,3-b]pyridin-4-yl)oxy)-2-fluorophenyl)urea] | –
11 | > 6.82 | > 6.82 | – | – | – | – | CC(C)(C)c1cc(NC(=O)Nc2ccc(-c3nn(C4CCN(C5COC5)CC4)c4ncnc(N)c34)cc2F)on1 [Ia-14, 1-(4-(4-amino-1-(1-(oxetan-3-yl)piperidin-4-yl)-1H-pyrazolo[3,4-d]pyrimidin-3-yl)-2-fluorophenyl)-3-(3-(tert-butyl)isoxazol-5-yl)urea] | –
12 | > 6.82 | > 6.82 | – | – | – | – | CC(C)(C)c1cc(NC(=O)Nc2ccc(-c3nn(C4COC4)c4ncnc(N)c34)cc2F)on1 [Ia-12, 1-(4-(4-amino-1-(oxetan-3-yl)-1H-pyrazolo[3,4-d]pyrimidin-3-yl)-2-fluorophenyl)-3-(3-(tert-butyl)isoxazol-5-yl)urea] | –
13 | > 6.82 | 6.52 to 6.82 | – | – | – | – | CC1(c2cc(NC(=O)Nc3ccc(-c4nn(C5CC5)c5ncnc(N)c45)cc3F)on2)CC1 [Ia-32, 1-(4-(4-amino-1-cyclopropyl-1H-pyrazolo[3,4-d]pyrimidin-3-yl)-2-fluorophenyl)-3-(3-(1-methylcyclopropyl)isoxazol-5-yl)urea] | –
